Values quoted from earlier work, collected in patent publication US6361800B1 (Cooper Concepts, Inc., priority 2000, dated 2002).
Read-outs that look alike come from different tables or passages of the source.

Settings: 100 I.U. taken for two years or longer

Substance: vitamin E
- reduced deaths of coronary artery disease (39,910 male health professionals): 37%
- reduced deaths of coronary artery disease (87,245 nurses): 40%
